In patent US12486269B2 (Aconcagua Bio, Inc., priority 2024, dated 2025) one finds EC50 data, which are given here for 13 molecules.

The target in experiment [1] is T1, COS-7/AMY3 (human calcitonin receptor (CTR) and RAMP3) (Homo sapiens, UniProt O60896+P30988).
T1 construct: expressed in transfected cells; host or cells: COS-7
In words: Amylin Receptor cAMP Assay II. The experiment is classed as cell-based. Conditions: values marked **: Amylin Receptor cAMP Assay II; COS-7/AMY3 cells, cAMP dynamic 2 kit, 30 min; read-out: Amylin Receptor cAMP Stimulation Activity: EC50. The essentials:
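COS-7 cells stably co-expressing human CTR and RAMP3 (AMY3), 2000 cells/well in HBSS with 20 mM HEPES, 0.5 mM IBMX, 0.1% casein, stimulated with compound for 30 min at 37 °C. cAMP measured by HTRF (665/615 nm), activity normalized between vehicle and maximal control.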

In experiment [2] the target is T2, human calcitonin receptor (CTR) (Homo sapiens, UniProt P30988).
T2 construct: expressed in transfected cells; host or cells: COS-7 (COS7-human CTR Clone #2)
T2 sequence (P30988 25-474): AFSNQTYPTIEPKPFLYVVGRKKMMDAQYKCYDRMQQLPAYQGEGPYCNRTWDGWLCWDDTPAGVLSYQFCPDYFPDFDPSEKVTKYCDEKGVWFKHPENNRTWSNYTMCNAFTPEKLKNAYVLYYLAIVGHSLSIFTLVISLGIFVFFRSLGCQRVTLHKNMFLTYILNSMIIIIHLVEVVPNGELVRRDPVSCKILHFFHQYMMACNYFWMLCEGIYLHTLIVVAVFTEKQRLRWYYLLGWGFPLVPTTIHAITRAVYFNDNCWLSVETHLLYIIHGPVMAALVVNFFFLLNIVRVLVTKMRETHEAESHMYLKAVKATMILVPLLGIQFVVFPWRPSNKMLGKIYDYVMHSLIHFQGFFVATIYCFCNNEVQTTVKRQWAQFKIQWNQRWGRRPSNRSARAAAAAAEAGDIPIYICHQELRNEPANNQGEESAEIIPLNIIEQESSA
The experiment is described as follows: Calcitonin Receptor (CTR) cAMP Assay. Format: cell-based. Conditions: COS7-human CTR Clone #2 stable cell line, cAMP dynamic 2 kit, 30 min; read-out: Calcitonin Receptor cAMP Stimulation Activity: EC50. The essentials: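 COS-7 cells stably expressing human CTR (2000 cells/well) were incubated 30 min at 37 °C with 4-fold serially diluted compound in HBSS/20 mM HEPES/0.5 mM IBMX/0.1% casein. cAMP was detected by HTRF (665/615 nm) after 1 h at RT. % activity was normalised to vehicle and positive controls.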

T1 sequence (O60896 24-148, one chain of several): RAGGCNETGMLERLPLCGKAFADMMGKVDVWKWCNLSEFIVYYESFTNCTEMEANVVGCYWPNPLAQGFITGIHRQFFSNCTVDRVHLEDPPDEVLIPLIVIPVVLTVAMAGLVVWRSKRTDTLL

For the molecule `COc1c(F)ccc2c1C[C@@H](F)[C@H]2Nc1nccc2cc(-c3c4c(nc(CCc5ccc(F)cc5)c3-c3n[nH]c(=O)o3)C35CC(CN3C4=O)C5)sc12` [Compound 291, 5-(4-(7-(((1S,2R)-2,5-difluoro-4-methoxy-2,3-dihydro-1H-inden-1-yl)amino)thieno[2,3-c]pyridin-2-yl)-2-(4-fluorophenethyl)-5-oxo-5,7,8,9-tetrahydro-8,9a-methanopyrido[2,3-a]pyrrolizin-3-yl)-1,3,4-oxadiazol-2(3H)-one], the concentration for a half-maximal effect (EC50) in experiment [1] came out at 0.363 nM; in experiment [2], 0.0138 nM.

Take `COc1c(F)ccc2c1CC(F)(F)[C@@H]2Nc1nccc2cc(-c3c4c(nc(CCc5ccc(F)cc5)c3-c3n[nH]c(=O)o3)C35CC(CN3C4=O)C5)sc12` [Compound 292, (R)-5-(2-(4-fluorophenethyl)-5-oxo-4-(7-((2,2,5-trifluoro-4-methoxy-2,3-dihydro-1H-inden-1-yl)amino)thieno[2,3-c]pyridin-2-yl)-5,7,8,9-tetrahydro-8,9a-methanopyrido[2,3-a]pyrrolizin-3-yl)-1,3,4-oxadiazol-2(3H)-one]: the EC50 in experiment [1] came to 298 nM; in experiment [2], 7.36 nM.

For the molecule `O=C1c2c(nc(CCc3ccc(F)cc3)c(-c3n[nH]c(=O)o3)c2-c2cc3ccnc(N[C@@H]4CCOc5c(F)cc(F)cc54)c3s2)C23CC(CN12)C3` [Compound 293, (R)-5-(4-(7-((6,8-difluorochroman-4-yl)amino)thieno[2,3-c]pyridin-2-yl)-2-(4-fluorophenethyl)-5-oxo-8,9-dihydro-5H,7H-8,9a-methanopyrido[2,3-a]pyrrolizin-3-yl)-1,3,4-oxadiazol-2(3H)-one], the results for the EC50 in experiment [1] and in experiment [2] were 2.68 nM and 0.0485 nM, respectively.

Consider `COc1cc(F)cc2c1CC[C@H]2Nc1nccc2cc(-c3c4c(nc(CCc5ccc(F)cc5)c3-c3n[nH]c(=O)o3)C35CC(CN3C4=O)C5)sc12` [Compound 294, (R)-5-(4-(7-((6-fluoro-4-methoxy-2,3-dihydro-1H-inden-1-yl)amino)thieno[2,3-c]pyridin-2-yl)-2-(4-fluorophenethyl)-5-oxo-5,7,8,9-tetrahydro-8,9a-methanopyrido[2,3-a]pyrrolizin-3-yl)-1,3,4-oxadiazol-2(3H)-one], for which the results for the EC50 in experiment [1] and in experiment [2] were 0.562 nM and 0.0435 nM, respectively.

As to `Cc1cc2cc(-c3c4c(nc(CCc5ccc(F)cc5)c3-c3n[nH]c(=O)o3)C35CC(CN3C4=O)C5)sc2c(N[C@@H]2CCOc3c(F)cc(F)cc32)n1` [Compound 295, (R)-5-(4-(7-((6,8-difluorochroman-4-yl)amino)-5-methylthieno[2,3-c]pyridin-2-yl)-2-(4-fluorophenethyl)-5-oxo-8,9-dihydro-5H,7H-8,9a-methanopyrido[2,3-a]pyrrolizin-3-yl)-1,3,4-oxadiazol-2(3H)-one], the EC50 amounted to 1.21 nM in experiment [1] and 0.0289 nM in experiment [2].

`COc1c(F)ccc2c1CC(F)(F)[C@H]2Nc1nc(C)cc2cc(-c3c4c(nc(CCc5ccc(F)cc5)c3-c3n[nH]c(=O)o3)C35CC(CN3C4=O)C5)sc12` [Compound 296, (S)-5-(2-(4-fluorophenethyl)-4-(5-methyl-7-((2,2,5-trifluoro-4-methoxy-2,3-dihydro-1H-inden-1-yl)amino)thieno[2,3-c]pyridin-2-yl)-5-oxo-8,9-dihydro-5H,7H-8,9a-methanopyrido[2,3-a]pyrrolizin-3-yl)-1,3,4-oxadiazol-2(3H)-one]: the EC50 in experiment [1] worked out at 0.272 nM; in experiment [2], 0.0164 nM.

On to `O=C1c2c(nc(CCc3ccc(F)cc3)c(-c3n[nH]c(=O)o3)c2-c2cc3cc(C(F)F)nc(N[C@@H]4CCOc5c(F)cc(F)cc54)c3s2)C23CC(CN12)C3` [Compound 297, (R)-5-(4-(7-((6,8-difluorochroman-4-yl)amino)-5-(difluoromethyl)thieno[2,3-c]pyridin-2-yl)-2-(4-fluorophenethyl)-5-oxo-8,9-dihydro-5H,7H-8,9a-methanopyrido[2,3-a]pyrrolizin-3-yl)-1,3,4-oxadiazol-2(3H)-one], for which the results for the EC50 in experiment [1] and in experiment [2] were 1.07 nM and 0.0413 nM, respectively.

Consider `COc1cc(F)cc2c1CC[C@H]2Nc1nc(C)cc2cc(-c3c4c(nc(CCc5ccc(F)cc5)c3-c3n[nH]c(=O)o3)C35CC(CN3C4=O)C5)sc12` [Compound 298, (R)-5-(4-(7-((6-fluoro-4-methoxy-2,3-dihydro-1H-inden-1-yl)amino)-5-methylthieno[2,3-c]pyridin-2-yl)-2-(4-fluorophenethyl)-5-oxo-8,9-dihydro-5H,7H-8,9a-methanopyrido[2,3-a]pyrrolizin-3-yl)-1,3,4-oxadiazol-2(3H)-one], for which the EC50 in experiment [1] came out at 0.747 nM; in experiment [2], 0.0212 nM.

For `COc1c(F)c(F)cc2c1CC[C@H]2Nc1nc(C)cc2cc(-c3c4c(nc(CCc5ccc(F)cc5)c3-c3n[nH]c(=O)o3)[C@@H]3CCCN3C4=O)sc12` [Compound 299, 5-((S)-4-(7-(((R)-5,6-difluoro-4-methoxy-2,3-dihydro-1H-inden-1-yl)amino)-5-methylthieno[2,3-c]pyridin-2-yl)-2-(4-fluorophenethyl)-5-oxo-7,8,9,9a-tetrahydro-5H-pyrido[2,3-a]pyrrolizin-3-yl)-1,3,4-oxadiazol-2(3H)-one], the results for the EC50 in experiment [1] and in experiment [2] were 0.363 nM and 0.0172 nM, respectively.

On to `COc1c(F)ccc2c1CC[C@H]2Nc1nc(C)cc2cc(-c3c4c(nc(CCc5cccc(F)c5)c3-c3n[nH]c(=O)o3)C35CC(CN3C4=O)C5)sc12` [Compound 300, (R)-5-(4-(7-((5-fluoro-4-methoxy-2,3-dihydro-1H-inden-1-yl)amino)-5-methylthieno[2,3-c]pyridin-2-yl)-2-(3-fluorophenethyl)-5-oxo-8,9-dihydro-5H,7H-8,9a-methanopyrido[2,3-a]pyrrolizin-3-yl)-1,3,4-oxadiazol-2(3H)-one], for which the EC50 in experiment [1] was found to be 0.362 nM; in experiment [2], 0.016 nM.

As for `COc1c(F)ccc2c1C[C@@H](F)[C@H]2Nc1nc(C)cc2cc(-c3c4c(nc(CCc5ccc(F)cc5)c3-c3n[nH]c(=O)o3)[C@@H]3CCCN3C4=O)sc12` [Compound 301, 5-((S)-4-(7-(((1S,2R)-2,5-difluoro-4-methoxy-2,3-dihydro-1H-inden-1-yl)amino)-5-methylthieno[2,3-c]pyridin-2-yl)-2-(4-fluorophenethyl)-5-oxo-7,8,9,9a-tetrahydro-5H-pyrido[2,3-a]pyrrolizin-3-yl)-1,3,4-oxadiazol-2(3H)-one], the figures for the EC50 in experiment [1] and in experiment [2] were 0.857 nM and 0.0551 nM, respectively.

With `COc1c(F)ccc2c1CC[C@H]2Nc1nc(C)cc2cc(-c3c4c(nc(CCc5ccc(F)cc5)c3-c3n[nH]c(=O)o3)C(C3CC3)NC4=O)sc12` (stereo partly drawn) [Compound 302, 5-(7-cyclopropyl-4-(7-(((R)-5-fluoro-4-methoxy-2,3-dihydro-1H-inden-1-yl)amino)-5-methylthieno[2,3-c]pyridin-2-yl)-2-(4-fluorophenethyl)-5-oxo-6,7-dihydro-5H-pyrrolo[3,4-b]pyridin-3-yl)-1,3,4-oxadiazol-2(3H)-one], the EC50 came to 3.97 nM in experiment [1] and 0.134 nM in experiment [2].

On to `COc1c(F)ccc2c1CC(F)(F)[C@H]2Nc1nc(C)cc2cc(-c3c4c(nc(CCc5ccc(F)cc5)c3-c3n[nH]c(=O)o3)[C@@H]3CCCN3C4=O)sc12` [Compound 303, 5-((S)-2-(4-fluorophenethyl)-4-(5-methyl-7-(((S)-2,2,5-trifluoro-4-methoxy-2,3-dihydro-1H-inden-1-yl)amino)thieno[2,3-c]pyridin-2-yl)-5-oxo-7,8,9,9a-tetrahydro-5H-pyrido[2,3-a]pyrrolizin-3-yl)-1,3,4-oxadiazol-2(3H)-one], for which the results for the EC50 in experiment [1] and in experiment [2] were 0.695 nM and 0.0337 nM, respectively.
